# Results from ChEMBL document CHEMBL4673259, “Discovery of isoquinolinone and naphthyridinone-based inhibitors of poly(ADP-ribose) polymerase-1 (PARP1) as anticancer agents: Structure activity relationship and preclinical characterization” (Bioorg Med Chem, 2020).
# Assays:
# MDA-MB-436 [1] = assay: Potentiation of anticancer activity against human MDA-MB-436 cells harboring BRCA mutant xenografted in SCID/nude mouse assessed as tumor growth inhibition at 3 mg/kg, po bid for 12 days co-administered with TMZ measured up to 9 weeks post-drug administration; format: functional; settings: MDA-MB-436, po, 288 h, time 12 day
# CAPAN-1 = assay: Potentiation of anticancer activity against human CAPAN-1 cells harboring BRCA mutant xenografted in SCID/nude mouse assessed as tumor growth inhibition at 3 mg/kg, po bid for 12 days co-administered with TMZ measured up to 9 weeks post-drug administration; format: functional; settings: CAPAN-1, po, 288 h, time 12 day
# SK-ES1 = assay: Potentiation of anticancer activity against human SK-ES-1 cells harboring EWSF1 translocation xenografted in SCID/nude mouse assessed as tumor growth inhibition at 3 mg/kg, po bid for 12 days co-administered with TMZ measured up to 9 weeks post drug administration; format: functional; settings: 288 h, time 12 day
# MDA-MB-436 [2] = assay: Anticancer activity against human MDA-MB-436 cells harboring BRCA mutant xenografted in SCID/nude mouse assessed as tumor growth regression at 50 mg/kg, po bid and measured up to 5 weeks post-drug administration; format: functional; settings: MDA-MB-436, po, 840 h, time weeks <=5
# [3] = Toxicity in SCID/nude mouse xenografted with human MDA-MB-436 cells harboring BRCA mutant assessed as body weight loss at 50 mg/kg, po bid; format: organism-based; settings: in vivo
# [4] = molecular target: T1, Poly [ADP-ribose] polymerase 1 (Homo sapiens, UniProt P09874); assay: Inhibition of PARP1 in human MDA-MB-436 cells assessed as inhibition of PARylation at 10 nM incubated for 1 hr by chemiluminescence assay; format: cell-based
# [5] = molecular target: Poly [ADP-ribose] polymerase 2 (Homo sapiens, UniProt Q9UGN5); assay: Inhibition of N-terminal GST-tagged human PARP2 (2 to 583 residues) expressed in baculovirus infected Sf9 cells using histone mixture (H2A and H2B) and biotinylated NAD+ as substrate in presence of activated DNA incubated for 60 mins by chemiluminescence assay
# [6] = molecular target: T1, Poly [ADP-ribose] polymerase 1; assay: Inhibition of N-terminal GST-tagged human full length PARP1 (2 to 1041 residues) expressed in baculovirus infected Sf9 cells using histone mixture (H2A and H2B) and biotinylated NAD+ as substrate in presence of activated DNA incubated for 60 mins by chemiluminescence assay
# MDA-MB-436 [7] = assay: Cytotoxicity against human MDA-MB-436 cells assessed as inhibition of cell viability incubated for 14 days with three intermittent intervals by CellTiterGlo luminescence assay; settings: MDA-MB-436, 336 h
# MDA-MB-436 [8] = assay: Cytotoxicity against human MDA-MB-436 cells assessed as inhibition of cell viability incubated for 4 days by CellTiterGlo luminescence assay; settings: MDA-MB-436, 96 h
# MDA-MB-436 [9] = assay: Anticancer activity against human MDA-MB-436 cells harboring BRCA mutant xenografted in SCID/nude mouse assessed as tumor growth regression at 1.5 mg/kg, po bid and measured up to 5 weeks post-drug administration; format: functional; settings: MDA-MB-436, po, 840 h, time weeks <=5
# [10] = Cmax in BALB/c mouse at 1 mg/kg, iv measured up to 24 hrs by LC-MS/MS analysis; format: ADME, organism-based; parameters: route intravenous, dose 1 mg/kg, time <=24; settings: in vivo
# [11] = Oral bioavailability in BALB/c mouse at 10 mg/kg measured up to 24 hrs by LC-MS/MS analysis; format: ADME, organism-based; settings: in vivo
# HEK293 [12] = assay: Cytotoxicity against HEK293 cells assessed as inhibition of cell viability; format: cell-based; settings: human
# MCF7 = assay: Cytotoxicity against human MCF7 cells harboring wild type BRCA at 1000 nM relative to control; format: cell-based; settings: mcf7, 1 µM
# [13] = Clearance in BALB/c mouse at 1 mg/kg, iv measured up to 24 hrs by LC-MS/MS analysis; format: ADME, organism-based; settings: in vivo
# [14] = AUClast in BALB/c mouse at 10 mg/kg, po measured up to 24 hrs by LC-MS/MS analysis; format: ADME, organism-based; parameters: route oral, dose 10 mg/kg, time <=24; settings: in vivo
# [15] = Volume of distribution at steady state in BALB/c mouse at 1 mg/kg, iv measured up to 24 hrs by LC-MS/MS analysis; format: ADME, organism-based; settings: in vivo, read-out: Vdss
# [16] = Cmax in BALB/c mouse at 10 mg/kg, po measured up to 24 hrs by LC-MS/MS analysis; format: ADME, organism-based; parameters: route oral, dose 10 mg/kg, time <=24; settings: in vivo
# [17] = Tmax in BALB/c mouse at 1 mg/kg, iv measured up to 24 hrs by LC-MS/MS analysis; format: ADME, organism-based; settings: in vivo
# [18] = AUClast in BALB/c mouse at 1 mg/kg, iv measured up to 24 hrs by LC-MS/MS analysis; format: ADME, organism-based; parameters: route intravenous, dose 1 mg/kg, time <=24; settings: in vivo
# [19] = Tmax in BALB/c mouse at 10 mg/kg, po measured up to 24 hrs by LC-MS/MS analysis; format: ADME, organism-based; settings: in vivo
# [20] = Half life in BALB/c mouse at 1 mg/kg, iv measured up to 24 hrs by LC-MS/MS analysis; format: ADME, organism-based; settings: in vivo
# HEK293 [21] = assay: Cytotoxicity against HEK293 cells at 1000 nM relative to control; format: cell-based; settings: human, hek293, 1 µM
# [22] = Toxicity against SCID/nude mouse xenografted with human SK-ES-1 cells harboring EWSF1 translocation assessed as hypothermia at 0.15 mg/kg, po bid for 12 days co-administered with 35 mg/kg, po TMZ; format: organism-based; settings: in vivo, 288 h, time 12 day
# [23] = Toxicity against SCID/nude mouse xenografted with human CAPAN-1 cells harboring BRCA mutant assessed as body weight loss at 0.15 mg/kg, po bid for 12 days co-administered with 35 mg/kg, po TMZ; format: organism-based; settings: in vivo, 288 h, time 12 day
# [24] = Toxicity against SCID/nude mouse xenografted with human SK-ES-1 cells harboring EWSF1 translocation assessed as body weight loss at 0.15 mg/kg, po bid for 12 days co-administered with 35 mg/kg, po TMZ; format: organism-based; settings: in vivo, 288 h, time 12 day
# [25] = Toxicity against SCID/nude mouse xenografted with human SK-ES-1 cells harboring EWSF1 translocation assessed as body weight loss at 0.15 mg/kg, po bid for 12 days co-administered with lower dose of TMZ; format: organism-based; settings: in vivo, 288 h, time 12 day
# [26] = Toxicity against SCID/nude mouse xenografted with human MDA-MB-436 cells harboring BRCA mutant assessed as body weight loss at 0.15 mg/kg, po bid for 12 days co-administered with lower dose of TMZ; format: organism-based; settings: in vivo, 288 h, time 12 day
# [27] = Toxicity against SCID/nude mouse xenografted with human MDA-MB-436 cells harboring BRCA mutant assessed as hypothermia at 0.15 mg/kg, po bid for 12 days co-administered with 35 mg/kg, po TMZ; format: organism-based; settings: in vivo, 288 h, time 12 day
# [28] = Toxicity in SCID/nude mouse xenografted with human MDA-MB-436 cells harboring BRCA mutant assessed as body weight loss at 0.15 mg/kg, po bid; format: organism-based; settings: in vivo
# [29] = Toxicity against SCID/nude mouse xenografted with human MDA-MB-436 cells harboring BRCA mutant assessed as body weight loss at 0.15 mg/kg, po bid for 12 days co-administered with 35 mg/kg, po TMZ; format: organism-based; settings: in vivo, 288 h, time 12 day
# MDA-MB-436 [30] = assay: Anticancer activity against human MDA-MB-436 cells harboring BRCA mutant xenografted in SCID/nude mouse assessed as tumor growth regression at 0.15 mg/kg, po bid and measured up to 5 weeks post-drug administration; format: functional; settings: MDA-MB-436, po, 840 h, time weeks <=5
# [31] = Toxicity against SCID/nude mouse xenografted with human CAPAN-1 cells harboring BRCA mutant assessed as body weight loss at 0.15 mg/kg, po bid for 12 days co-administered with lower dose of TMZ; format: organism-based; settings: in vivo, 288 h, time 12 day
# [32] = Toxicity against SCID/nude mouse xenografted with human CAPAN-1 cells harboring BRCA mutant assessed as hypothermia at 0.15 mg/kg, po bid for 12 days co-administered with 35 mg/kg, po TMZ; format: organism-based; settings: in vivo, 288 h, time 12 day
# Sequence of Poly [ADP-ribose] polymerase 2 (Q9UGN5 whole entry, the tested form may be a part): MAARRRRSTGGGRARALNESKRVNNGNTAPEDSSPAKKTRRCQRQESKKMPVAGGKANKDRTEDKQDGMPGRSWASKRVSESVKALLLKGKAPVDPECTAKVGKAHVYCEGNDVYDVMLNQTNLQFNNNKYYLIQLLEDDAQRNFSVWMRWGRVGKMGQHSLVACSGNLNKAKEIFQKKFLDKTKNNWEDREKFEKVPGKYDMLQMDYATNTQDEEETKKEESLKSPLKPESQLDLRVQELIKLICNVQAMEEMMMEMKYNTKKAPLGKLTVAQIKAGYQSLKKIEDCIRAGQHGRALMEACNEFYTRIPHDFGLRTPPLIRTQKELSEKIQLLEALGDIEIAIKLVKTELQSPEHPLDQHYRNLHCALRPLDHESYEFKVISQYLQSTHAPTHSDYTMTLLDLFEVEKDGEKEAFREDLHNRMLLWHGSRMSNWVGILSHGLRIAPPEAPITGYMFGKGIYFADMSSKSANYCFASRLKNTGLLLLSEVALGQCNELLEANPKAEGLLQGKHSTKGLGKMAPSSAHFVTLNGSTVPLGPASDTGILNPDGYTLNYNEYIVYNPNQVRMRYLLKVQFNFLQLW
# T1 sequence (P09874 whole entry, the tested form may be a part): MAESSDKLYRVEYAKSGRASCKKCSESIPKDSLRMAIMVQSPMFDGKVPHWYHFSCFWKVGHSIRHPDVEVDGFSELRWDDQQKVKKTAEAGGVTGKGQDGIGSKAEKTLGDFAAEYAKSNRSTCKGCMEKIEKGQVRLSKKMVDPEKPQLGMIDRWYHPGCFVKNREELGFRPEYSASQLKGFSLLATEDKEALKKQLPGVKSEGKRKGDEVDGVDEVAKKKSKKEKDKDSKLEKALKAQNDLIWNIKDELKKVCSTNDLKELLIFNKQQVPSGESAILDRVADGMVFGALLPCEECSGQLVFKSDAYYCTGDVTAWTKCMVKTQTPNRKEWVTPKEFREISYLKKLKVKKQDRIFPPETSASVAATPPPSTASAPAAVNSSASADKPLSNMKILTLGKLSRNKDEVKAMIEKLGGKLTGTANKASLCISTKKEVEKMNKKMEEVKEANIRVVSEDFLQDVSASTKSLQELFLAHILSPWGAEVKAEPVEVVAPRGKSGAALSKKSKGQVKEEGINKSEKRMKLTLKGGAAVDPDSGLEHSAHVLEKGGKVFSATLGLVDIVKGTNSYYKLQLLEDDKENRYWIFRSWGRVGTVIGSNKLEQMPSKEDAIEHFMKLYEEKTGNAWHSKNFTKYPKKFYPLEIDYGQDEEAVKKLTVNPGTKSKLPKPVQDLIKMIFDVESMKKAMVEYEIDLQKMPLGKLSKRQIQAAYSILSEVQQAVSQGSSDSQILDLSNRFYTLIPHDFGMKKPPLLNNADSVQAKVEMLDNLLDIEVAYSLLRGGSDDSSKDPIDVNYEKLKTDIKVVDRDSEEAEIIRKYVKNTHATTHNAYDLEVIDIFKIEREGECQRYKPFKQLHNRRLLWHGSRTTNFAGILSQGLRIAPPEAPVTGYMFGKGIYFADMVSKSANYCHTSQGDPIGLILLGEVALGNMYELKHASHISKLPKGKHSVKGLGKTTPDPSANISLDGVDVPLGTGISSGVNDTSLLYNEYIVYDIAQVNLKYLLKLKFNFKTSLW
Structure (SMILES),inhibition [4] [%],IC50 [5] [nM],IC50 [6] [nM],IC50 (MDA-MB-436 [7]) [nM],IC50 (MDA-MB-436 [8]) [nM],other results
O=C(c1cc(Cc2n[nH]c(=O)c3ccccc23)ccc1F)N1CCN(C(=O)C2CC2)CC1 [OLAPARIB],–,–,–,–,–,inhibition in vivo at 3 mg/kg (MDA-MB-436 [1]): 39%; inhibition in vivo at 3 mg/kg (CAPAN-1): 49%; inhibition in vivo at 3 mg/kg (SK-ES1): 39.5%; inhibition in vivo at 50 mg/kg (MDA-MB-436 [2]): 40%; Activity [3]: 10%
N#Cc1ccc(N2CCN([C@@H]3C=C(c4cc5c(N)cccc5c(=O)[nH]4)CC3)CC2)cc1,83,167,2.5,–,–,–
NC(=O)c1ccc(N2CCN(CCCc3cc4c(N)cc(F)cc4c(=O)[nH]3)CC2)cc1,54,4.6,0.4,0.33,1.48,–
N#Cc1ccc(N2CCN([C@@H]3C=C(c4cc5c(N)cc(F)cc5c(=O)[nH]4)CC3)CC2)cc1,40,200,5,–,–,–
N#Cc1ccc(N2CCN(CCCc3cc4c(N)cccc4c(=O)[nH]3)CC2)cc1,93,7.2,0.6,0.001,0.02,–
N#Cc1ccc(N2CCN(CCCc3cc4c(N)cc(F)cc4c(=O)[nH]3)CC2)cc1,86,3.9,0.6,0.0006,0.015,inhibition in vivo at 1.5 mg/kg (MDA-MB-436 [9]): 29%; Cmax [10]: 3.7 µM; bioavailability [11]: 8%; Activity (HEK293 [12]): Non-Toxic; Activity (MCF7): 23%; clearance [13]: 17 mL/min/kg; AUC(0-t) at 24 h [14]: 1.9 µM·h; Vd [15]: 0.8 L/kg; Cmax [16]: 1.5 µM; Tmax [17]: 4.8 min; AUC(0-t) at 24 h [18]: 2.4 µM·h; Tmax [19]: 15 min; half-life [20]: 66 min
N#Cc1ccc(N2CCN([C@@H]3C=C(c4cc5c(N)cc(F)cc5c(=O)[nH]4)CC3)CC2)c(F)c1,–,58,5.6,–,–,–
N#Cc1ccc(N2CCN([C@H]3C=C(c4cc5ncc(F)cc5c(=O)[nH]4)CC3)CC2)cc1,91,26.9,0.9,0.007,0.17,–
N#Cc1ccc(N2CCN([C@H]3C=C(c4cc5ncccc5c(=O)[nH]4)CC3)CC2)nc1,92,16.6,1,0.05,1.1,–
N#Cc1ccc(N2CCN([C@H]3C=C(c4cc5c(N)cc(F)cc5c(=O)[nH]4)CC3)CC2)cc1,92,1.3,1,0.0016,0.073,inhibition in vivo at 1.5 mg/kg (MDA-MB-436 [9]): 94%; Cmax [10]: 11 µM; bioavailability [11]: 59%; Activity (MCF7): 36%; clearance [13]: 2.2 mL/min/kg; AUC(0-t) at 24 h [14]: 106 µM·h; Vd [15]: 0.4 L/kg; Cmax [16]: 19 µM; Tmax [17]: 4.8 min; AUC(0-t) at 24 h [18]: 18 µM·h; Tmax [19]: 15 min; Activity (HEK293 [21]): 65%; half-life [20]: 132 min
CNC(=O)c1ccc(N2CCN(CCCc3cc4c(N)cc(F)cc4c(=O)[nH]3)CC2)cc1,62,10.8,0.8,0.01,0.35,–
Nc1cc(F)cc2c(=O)[nH]c(CCCN3CCN(c4ccc(F)cc4)CC3)cc12,68,9.5,0.9,0.05,1.13,–
N#Cc1ccc(N2CCN([C@H]3C=C(c4cc5c(N)cccc5c(=O)[nH]4)CC3)CC2)cc1,92,1.5,0.6,0.005,0.109,–
N#Cc1ccc(N2CCN([C@H]3C=C(c4cc5c(N)cc(F)cc5c(=O)[nH]4)CC3)CC2)c(F)c1,89,2.6,0.9,0.05,0.06,–
Cn1ncnc1[C@H]1c2n[nH]c(=O)c3cc(F)cc(c23)N[C@@H]1c1ccc(F)cc1 [TALAZOPARIB],91,–,–,–,–,Activity [22]: Toxic; Activity [23]: Toxic; Activity [24]: Toxic; Activity (MCF7): 98%; Activity [25]: Non-Toxic; Activity [26]: Non-Toxic; Activity [27]: Toxic; Activity [28]: 10%; Activity [29]: Toxic; inhibition in vivo at 0.15 mg/kg (MDA-MB-436 [30]): 65%; Activity [31]: Non-Toxic; Activity (HEK293 [21]): 95%; Activity [32]: Toxic
CNCc1ccc(-c2[nH]c3cc(F)cc4c3c2CCNC4=O)cc1 [RUCAPARIB],–,–,–,–,–,inhibition in vivo at 3 mg/kg (MDA-MB-436 [1]): 95%; inhibition in vivo at 3 mg/kg (CAPAN-1): 46%; inhibition in vivo at 3 mg/kg (SK-ES1): 20.6%
